The values below come from ChEMBL document CHEMBL6087397, “H2S-releasing oridonin derivatives with improved antitumor activity by inhibiting the PI3K/AKT pathway” (Bioorg Med Chem, 2024).

Calls of active or inactive are those of the source. No cut-off for these calls is given here.

Series [1] deals with MCF7. Put plainly: Induction of cell cycle arrest in human MCF7 cells assessed as increase in accumulation of cells at G2/M phase at 5 uM incubated for 48 hrs by PI staining based flow cytometric analysis (reference value: 6.7%). It is filed as functional. (In general: A flow cytometer gives signals particle by particle.)
The subject of series [2] is MIA PaCa-2. Put plainly: Induction of cell cycle arrest in human MIA PaCa-2 cells assessed as increase in accumulation of cells at S phase at 5.0 uM incubated for 48 hrs by PI staining based flow cytometric analysis (reference value: 9.38%). The class given is functional.
For series [3], the system named is MIA PaCa-2. The series is described as follows: Induction of apoptosis in human MIA PaCa-2 cells assessed as increase in nuclear fragmentation at 2.5 uM incubated for 48 hrs by Hoechst 33342 staining based fluorescence microscopic analysis. It is filed as functional, cell-based.
In series [4] the test system is MCF7. Put plainly: Induction of apoptosis in human MCF7 cells assessed as upregulation of Bax/Bcl-2 ratio at 1.25 to 5.0 uM incubated for 48 hrs by Western blotting analysis. It is filed as functional, cell-based. The conditions noted are these: dose 1.25-5 µM. On the technique in general: In western blotting, separated proteins are transferred to a membrane and probed.

In series [5] the test system is MCF7. Put plainly: Induction of apoptosis in human MCF7 cells assessed as increase in Cyt-C level at 1.25 to 5.0 uM incubated for 48 hrs by Western blotting analysis. The conditions noted are these: dose 1.25-5 µM. The class given is functional, cell-based.
Series [6] relates to MCF7. Put plainly: Induction of apoptosis in human MCF7 cells assessed as increase in cleaved caspase-9 level at 1.25 to 5.0 uM incubated for 48 hrs by Western blotting analysis. The conditions noted are these: dose 1.25-5 µM. It is filed as functional, cell-based.
The test system of series [7] is MCF7. The series is described as follows: Induction of apoptosis in human MCF7 cells assessed as increase in cleaved PARP level at 1.25 to 5.0 uM incubated for 48 hrs by Western blotting analysis. It is filed as functional, cell-based. The conditions noted are these: dose 1.25-5 µM.
In series [8] the test system is MCF7. The series is described as follows: Induction of mitochondrial apoptosis pathway in human MCF7 cells assessed as downregulation of pro-caspase-3 expression at 1.25 to 5.0 uM incubated for 48 hrs by Western blotting analysis. The class given is functional, cell-based. The conditions noted are these: dose 1.25-5 µM.
The subject of series [9] is MIA PaCa-2. The series is described as follows: Induction of apoptosis in human MIA PaCa-2 cells assessed as upregulation of cleaved caspase-9 expression at 1.25 to 5.0 uM incubated for 48 hrs by Western blotting analysis. It is filed as functional, cell-based. The conditions noted are these: dose 1.25-5 µM.
Series [10] has as its system MIA PaCa-2. Put plainly: Induction of apoptosis in human MIA PaCa-2 cells assessed as upregulation of cleaved PARP expression at 1.25 to 5.0 uM incubated for 48 hrs by Western blotting analysis. It is filed as functional, cell-based. The conditions noted are these: dose 1.25-5 µM.
For series [11], the system named is MIA PaCa-2. The series is described as follows: Induction of apoptosis in human MIA PaCa-2 cells assessed as increase in Bax/Bcl-2 ratio at 1.25 to 5.0 uM incubated for 48 hrs by Western blotting analysis. The class given is functional, cell-based. The conditions noted are these: dose 1.25-5 µM.
In series [12] the test system is 4T1. Put plainly: Antitumor activity against mouse 4T1 cells xenografted in female BALB/c mouse assessed as tumor inhibition rate at 10 mg/kg, ip administered every 2 days relative to control. The class given is functional. The conditions noted are these: 4T1, 48 h, read-out: TGI.
The nature of series [13]: Toxicity in female BALB/c mouse xenografted with mouse 4T1 cells assessed as morphological change in liver at 10 mg/kg, ip administered every 2 days by H and E staining based analysis. It is filed as organism-based. The conditions noted are these: in vivo, 48 h.

Consider `C=C1C(=O)[C@]23[C@H](OC(=O)c4ccc(N=C=S)cc4)[C@H]1CC[C@H]2[C@@]12CO[C@]3(O)[C@@H](O)[C@@H]1C(C)(C)CC[C@@H]2O`, for which the Activity in series [1] is given as 11.5%; in [2], 46.9%; in series [13], “Non-toxic”. Moreover, the outcome in series [3], in series [4], in series [5], in series [6], in series [7] and in [8] was Active. In addition, the result in series [9], in [10] and in series [11] was Active. Also, the inhibition in vivo at 10 mg/kg in [12] was 34.3%.
